Assay results: article PMC11640419, “New Synthetic Analogs of Natural 5Z,9Z-Dienoic Acids—Hybrid Molecules Based on Oleanolic Acid: Synthesis and Study of Antitumor Activity” (Cancers, 2024)
Where two headings read alike, the source gives them in different places.

Key:
Format in all cases: cell-based, human
Jurkat = assay: Cytotoxicity assay (7-AAD, flow cytometry)
Procedure: (§1) The human cell lines Jurkat, K562, U937, and HEK293 were obtained from the European Collection of Authenticated Cell Cultures (ECACC) and subsequently cultured in accordance with established standard protocols and sterile techniques. […] Subsequently, the cells were seeded into 24-well plates at a density of 5 × 10^4 cells per well and incubated for 12 h (Jurkat, K562, U937) and 24 h (HEK293).
(§2) The viability of the cells was evaluated through the utilization of the 7-AAD (7-aminoactinomycin D) dye (eBioscience™, San Diego, CA, USA). Following a 24 h incubation period with the test substances, the cells were washed with phosphate-salt buffer (PBS) and centrifuged at 400× g for five minutes. […] Subsequently, all cell samples were subjected to analysis on a NovoCyte Penteon flow cytometer (Agilent, Santa Clara, CA, USA).

Jurkat cells [1] = assay: MILLIPLEX MAP 7-plex DNA Damage/Genotoxicity Magnetic Bead Kit (Luminex)
Description: (§3) In this study, we employed Luminex technology (MILLIPLEX® MAP 7-plex DNA Damage/Genotoxicity Magnetic Bead Kit and MILLIPLEX® MAP Early Apoptosis 7-plex Magnetic Bead Kit) to analyze protein analytes in Jurkat cell lysates. […] The Luminex xMAP intracellular protein assay is a multiplex multiparameter assay that employs a multiplex of fluorescent-labeled antibodies and magnetic particles to enhance the sensitivity, dynamic range, and accuracy of the analytical method. Luminex technology is employed to identify the proteins of interest present in each well. The mean fluorescence intensity (MFI) of each measured protein is then converted to its concentration (pg·mL^−1) using specialized software and standard curves.
(§4) The test substances were incubated with the cells at two concentrations, […], for a period of six hours. […] Following exposure, approximately 1 × 10⁶ cells from each well were transferred to 0.5-mL tubes (Eppendorf, Hamburg, Germany) and washed with PBS. Subsequently, the PBS was removed, 10 μL of lysis buffer (Cell Signaling Buffer and Detection Kit, Luminex, Austin, TX, USA) supplemented with 2 × protease and phosphatase inhibitors (Luminex, USA) was added, and the mixture was shaken for 30 s. A cocktail of fluorescence-encoded magnetic bead microspheres (MagPlex®, Luminex, USA) was resuspended and treated with ultrasound. Subsequently, 70 μL of this cocktail, 70 μL of protein standard, and 70 μL of the test sample were added to the wells of a 96-well microplate and incubated for 2 h at room temperature with stirring on an orbital shaker at 700–850 rpm. A magnetic plate was firmly attached to the bottom of a 96-well plate, and all wells were washed three times with 100 μL of wash buffer (Cell Signaling Buffer and Detection Kit, Luminex, USA) added to each well to remove unbound particles. Subsequently, 50 μL of […] to each well, and the samples were incubated for one hour at 4 °C on an orbital shaker set at 700–850 rpm. Subsequently, the samples were washed once more to remove any unbound antibodies. Afterwards, 70 μL of streptavidin-phycoerythrin (streptavidin-PE) (Luminex, USA) was added to each well and incubated for 30 min at room temperature on a shaker at 600 rpm. Subsequently, the samples were washed with streptavidin-PE and resuspended in 100 μL of wash buffer for a period of 2 min on a shaker at 800 rpm. The data were analyzed using the Milliplex Analyst 5.1 software (EMD Millipore, Billerica, MA, USA).

Jurkat cells [2] = assay: MILLIPLEX MAP Early Apoptosis 7-plex Magnetic Bead Kit (Luminex); conditions: 6 h; for Casp 8 protein level: activated caspase-8
Description: as §3, §4

[3] = Cytotoxicity assay (7-AAD, flow cytometry); conditions: human, Jurkat cells; Jurkat, 24 h incubation
Procedure: as §1, §2

[4] = Cytotoxicity assay (7-AAD, flow cytometry); conditions: human
Procedure: (§5) The human cell lines Jurkat, K562, U937, and HEK293 were obtained from the European Collection of Authenticated Cell Cultures (ECACC) and subsequently cultured in accordance with established standard protocols and sterile techniques. The cells were maintained in RPMI 1640 (for Jurkat, K562, and U937) or DMEM (for HEK293) medium, both of which were supplemented with […], 10% FBS (Sigma, Kanagawa, Japan), and 100 units/mL penicillin-streptomycin (Sigma). Subsequently, the cells were seeded into 24-well plates at a density of 5 × 10^4 cells per well and incubated for 12 h (Jurkat, K562, U937) and 24 h (HEK293).
(§6) The viability of the cells was evaluated through the utilization of the 7-AAD (7-aminoactinomycin D) dye (eBioscience™, San Diego, CA, USA). Following a 24 h incubation period with the test substances, the cells were washed with phosphate-salt buffer (PBS) and centrifuged at 400× g for five minutes. The precipitate was resuspended in 200 μL of flow cytometry buffer (PBS without calcium and magnesium, 2.5% FBS) and incubated with a 1 mM 7-AAD dye solution for 15 min in the dark at room temperature. Subsequently, all cell samples were subjected to analysis on a NovoCyte Penteon flow cytometer (Agilent, Santa Clara, CA, USA).

Jurkat cells [5] = assay: Cell cycle analysis (MAK344 kit, flow cytometry); conditions: compound at CC50, 24 h
Procedure: Cell cycle analysis was performed using the MAK344 cell cycle assay kit (Sigma-Aldrich, St. Louis, MO, USA). Immediately after incubation with the tested compounds for 24 h, cells were gently washed with ice-cold phosphate-buffered saline (PBS) and centrifuged at 450× g for 5 min. After removing the supernatant, the cell precipitate was resuspended and fixed with 70% ethanol with continuous shaking on ice, and then stored at −18 degrees Celsius for 24 h. Prior to staining, the cells were washed with ice-cold PBS, and then 0.5 mL of the Cell Cycle Assay Kit working solution was added to the cell suspension at room temperature in the dark according to the working protocol. Samples were then analyzed on a NovoCyte Penteon flow cytometer (Agilent, USA).

HEK293 = assay: Cytotoxicity assay (7-AAD, flow cytometry); conditions: Homo sapiens; HEK293, abstract
Procedure: as §5, §6

U937 = assay: Cytotoxicity assay (7-AAD, flow cytometry); conditions: Homo sapiens, U-937; U937, abstract
Procedure: as §5, §6

K562 = assay: Cytotoxicity assay (7-AAD, flow cytometry); conditions: Homo sapiens; K562, abstract
Procedure: as §5, §6

[6] = 6 h, at CC50 (anisomycin at IC50 0.192 μmol/L), ATR (total)
[7] = 6 h, at CC50 (anisomycin at IC50 0.192 μmol/L), CHK1 (S345)
[8] = 6 h, at CC50 (anisomycin at IC50 0.192 μmol/L), CHK2 (T68)
[9] = 6 h, at CC50 (anisomycin at IC50 0.192 μmol/L), H2AX (S139)
[10] = 6 h, at CC50 (anisomycin at IC50 0.192 μmol/L), MDM2 (total)
[11] = 6 h, at CC50 (anisomycin at IC50 0.192 μmol/L), p21 (total)
[12] = 6 h, at CC50 (anisomycin at IC50 0.192 μmol/L), p53 (S15), genotoxicity panel
[13] = at CC50 (anisomycin at IC50 0.192 μmol/L), AKT/PKB (S473)
[14] = at CC50 (anisomycin at IC50 0.192 μmol/L), BAD (S112)
[15] = at CC50 (anisomycin at IC50 0.192 μmol/L), BCL-2 (S70)
[16] = at CC50 (anisomycin at IC50 0.192 μmol/L), JNK/SAPK1 (T183/Y185)
[17] = at CC50 (anisomycin at IC50 0.192 μmol/L)
[18] = at CC50 (anisomycin at IC50 0.192 μmol/L), activated caspase-9
[19] = at CC50 (anisomycin at IC50 0.192 μmol/L), p53 (S46), apoptosis panel
[20] = HEK293 cells, HEK293, 24 h incubation
[21] = K562 cells, K562, 24 h incubation
[22] = U937 cells, U937, 24 h incubation

## COc1ccc(C[C@H]2NC[C@H](O)[C@H]2OC(C)=O)cc1 [Anisomycin, anisomycin, reference compound]
Jurkat; Jurkat cells, concentration used for the control compound, read-out: IC50
  IC50: 0.192 µM
Jurkat cells [1]; [6]
  ATR protein level: 440 % of control
Jurkat cells [1]; [7]
  Chk1 protein level: 610 % of control
Jurkat cells [1]; [8]
  Chk2 protein level: 20836 % of control
Jurkat cells [1]; [9]
  H2A.X protein level: 1841 % of control
Jurkat cells [1]; [10]
  MDM2 protein level: 367 % of control
Jurkat cells [1]; [11]
  p21 protein level: 3727 % of control
Jurkat cells [1]; [12]
  p53 protein level: 738 % of control
Jurkat cells [2]; [13]
  Akt protein level: 129 % of control
Jurkat cells [2]; [14]
  Bad protein level: 486 % of control
Jurkat cells [2]; [15]
  Bcl-2 protein level: 3180 % of control
Jurkat cells [2]; [16]
  JNK protein level: 357 % of control
Jurkat cells [2]; [17]
  Casp 8 protein level: 1229 % of control
Jurkat cells [2]; [18]
  Casp9 protein level: 9353 % of control
Jurkat cells [2]; [19]
  p53 protein level: 17 % of control

## CC[C@@]1(O)C(=O)OCc2c1cc1n(c2=O)Cc2cc3ccccc3nc2-1 [CPT, camptothecin, reference compound]
[3]
  CC50 at 24 h: 0.588 ± 0.0462 µM
Jurkat cells [1]; [6]
  ATR protein level: 263 % of control
Jurkat cells [1]; [7]
  Chk1 protein level: 52 % of control
Jurkat cells [1]; [8]
  Chk2 protein level: 5800 % of control
Jurkat cells [1]; [9]
  H2A.X protein level: 957 % of control
Jurkat cells [1]; [10]
  MDM2 protein level: 1417 % of control
Jurkat cells [1]; [11]
  p21 protein level: 170654 % of control
Jurkat cells [1]; [12]
  p53 protein level: 17285 % of control
[4]; [20]
  CC50 at 24 h: 0.692 ± 0.0536 µM
[4]; [21]
  CC50 at 24 h: 0.595 ± 0.0544 µM
[4]; [22]
  CC50 at 24 h: 0.522 ± 0.0444 µM
Jurkat cells [2]; [13]
  Akt protein level: 196 % of control
Jurkat cells [2]; [14]
  Bad protein level: 516 % of control
Jurkat cells [2]; [15]
  Bcl-2 protein level: 580 % of control
Jurkat cells [2]; [16]
  JNK protein level: 141 % of control
Jurkat cells [2]; [17]
  Casp 8 protein level: 209 % of control
Jurkat cells [2]; [18]
  Casp9 protein level: 10289 % of control
Jurkat cells [2]; [19]
  p53 protein level: 132 % of control

## Cn1nccc1NC(=O)[C@]12CCC(C)(C)C[C@H]1C1=CC[C@@H]3[C@@]4(C)CC[C@H](OC(=O)CCC/C=C\CC/C=C\CCCC(=O)O)C(C)(C)[C@@H]4CC[C@@]3(C)[C@]1(C)CC2 [compound 9a]
[3]
  CC50 at 24 h: 4.51 ± 0.41 µM
Jurkat; Homo sapiens, Jurkat, abstract, read-out: IC50 Jurkat
  IC50: 4.5 µM
Jurkat cells [1]; 6 h, at 0,5CC50
  ATR protein level: 119 % of control
  Chk1 protein level: 97 % of control
  Chk2 protein level: 645 % of control
  H2A.X protein level: 2485 % of control
  MDM2 protein level: 115 % of control
  p21 protein level: 318 % of control
Jurkat cells [1]; 6 h, at 0,5CC50, genotoxicity panel
  p53 protein level: 52 % of control
Jurkat cells [1]; 6 h, at 0.5CC50
  level of phosphorylated H2A.X in comparison to the control compound camptothecin: ~3.5 fold
Jurkat cells [1]; [6]
  ATR protein level: 131 % of control
Jurkat cells [1]; [7]
  Chk1 protein level: 144 % of control
Jurkat cells [1]; [8]
  Chk2 protein level: 936 % of control
Jurkat cells [1]; [9]
  H2A.X protein level: 3173 % of control
Jurkat cells [1]; [10]
  MDM2 protein level: 102 % of control
Jurkat cells [1]; [11]
  p21 protein level: 390 % of control
Jurkat cells [1]; [12]
  p53 protein level: 128 % of control
Jurkat cells [1]; six hours
  phosphorylated H2A.X, marker of DNA double-strand breaks: dose-dependent increase
Jurkat cells [5]
  cell population in the S-phase (Freq S): 46.10%
  percentage of cells in the G2/M phase (Freq G2): 3.96%
  percentage of cells in the pre-G0 phase (Freq Sub-G1): 8.67%
HEK293
  IC50: 26.2 µM
[4]; [20]
  CC50 at 24 h: 26.2 ± 1.93 µM
[4]; [21]
  CC50 at 24 h: 3.09 ± 0.34 µM
[4]; [22]
  CC50 at 24 h: 2.85 ± 0.34 µM
U937
  IC50: 2.8 µM
K562
  IC50: 3.1 µM
Jurkat cells [2]; at 0,5CC50
  Akt protein level: 15 % of control
  Bad protein level: 106 % of control
  Bcl-2 protein level: 140 % of control
  Casp9 protein level: 1144 % of control
  JNK protein level: 78 % of control
Jurkat cells [2]; at 0,5CC50, apoptosis panel
  p53 protein level: 112 % of control
Jurkat cells [2]; [14]
  Bad protein level: 55 % of control
Jurkat cells [2]; [15]
  Bcl-2 protein level: 20 % of control
Jurkat cells [2]; [16]
  JNK protein level: 106 % of control
Jurkat cells [2]; [17]
  Casp 8 protein level: 17 % of control
Jurkat cells [2]; [18]
  Casp9 protein level: 1341 % of control
Jurkat cells [2]; [19]
  p53 protein level: 160 % of control

## CC(=O)O[C@H]1CC[C@@]2(C)C(CC[C@]3(C)C2CC=C2C4CC(C)(C)CC[C@]4(C(=O)Nc4ccnn4C)CC[C@]23C)C1(C)C (stereo partly drawn) [compound 7a]
[3]
  CC50 at 24 h: 22.1 ± 1.96 µM
Jurkat cells [5]
  cell population in the S-phase (Freq S): 48.89%
  percentage of cells in the G2/M phase (Freq G2): 1.91%
[4]; [20]
  CC50 at 24 h: 58.4 ± 6.02 µM
[4]; [21]
  CC50 at 24 h: 17.7 ± 1.39 µM
[4]; [22]
  CC50 at 24 h: 14.4 ± 1.04 µM
